row,SMILES,melting point
1,CCCCc1nc(Sc2ccccc2)c(CO)[nH]1,45 °C
2,CC(=O)OCC1OC(n2cc(C3=C(c4c[nH]c5ccccc45)C(=O)N(C)C3=O)c3cccnc32)C(OC(C)=O)C(OC(C)=O)C1OC(C)=O (stereo not given),119 to 121 °C
3,O=C(c1ccc2c(c1)OCC(c1ccccc1)=N2)N1CCOCC1,175 to 177 °C
4,CCc1c(-c2cccnn2)ssc1=S,130 °C
5,CN(C)CCN(C)C(=O)Oc1ccc(Cl)cc1Cn1nc(-c2ccc(C(F)(F)F)cc2)oc1=O,127 to 129 °C
6,O=C1C(=CO)Cc2ccccc21,112 to 113 °C
7,O=C(O)CCSCC(=O)c1cc2sc(=O)[nH]c2cc1Cl,195 to 197 °C
8,CCSc1cccc(-c2nc(=O)c3ccccc3s2)n1,161 to 162 °C
9,CCOC(=O)c1cnn(C)c1C(=O)Nc1ccn2nc(N(C)C)nc2c1,193 to 195 °C
10,CCCc1nc(C(C)(C)O)c(-c2nnn[nH]2)n1Cc1ccc(-c2ccccc2C(=O)C(=O)O)cc1,169 to 170 °C
11,OCCON=Cc1ccc2ccccc2n1,128 °C
12,NC(=NC(=O)Cn1c(Cl)ccc1Cl)NC(=O)Cc1ccccc1,181 to 183 °C
13,CCOc1ccc(C(=O)CCC(=O)Nc2cc(OCCC(C)C)cc(-c3ccccc3)n2)cc1OCC,122 to 123 °C
14,Cc1cccc(-c2[nH]c(C(C)C)nc2-c2ccc(F)c(-c3ccc(S(C)(=O)=O)nc3)c2)n1,102 to 105 °C
15,CCOC(=O)CCCCCOc1ccc(-c2ccccc2)c(-c2ccccc2)n1,85 to 87 °C
16,CC1(CC(=O)O)OCCc2nc(-c3ccccc3)sc21 (stereo not given),143 to 145 °C
17,Oc1ccc(Nc2ncc3ncc(-c4ccccc4O)cc3n2)cc1,262 to 264 °C
18,CCN(CCc1c[nH]c2ccc(F)cc12)C1COc2c(F)ccc(C(N)=O)c2C1 (stereo not given),127 °C
19,CCOC(=O)c1cccc(NC(=O)c2cc(C(C)C)c(C(C)C)o2)c1,144 to 145 °C
20,O=S(=O)(c1ccc(Cn2cnnn2)cc1)C1CCN(CCc2ccc(F)cc2F)CC1,168 to 169 °C
21,COC(=O)CN(CCN(CCN(CC(=O)OC)S(=O)(=O)c1ccc(C)cc1)S(=O)(=O)c1ccc(C)cc1)S(=O)(=O)c1ccc(C)cc1,141 to 142 °C
22,CC(=NO)C(C)(C)NCC(CNC(C)(C)C(C)=NO)CC(O)Cn1ccnc1[N+](=O)[O-] (stereo not given),185 to 187 °C
23,C=CCNc1nc(NCCCCCCCCC)c2scc(C)c2n1,65 to 66 °C
24,Cc1ccc(C(=O)NC(C)(C)C)cn1,104 to 105 °C
25,CCc1nn(Cc2cccnn2)c2c(=O)[nH]c(-c3cc(S(C)(=O)=O)ccc3OCC(C)C)nc12,231 to 234 °C

row,SMILES,melting point
1,Cc1cc(Cl)c2[nH]nc(C)c2n1,176 to 178 °C
2,COC(=O)c1cc(CCc2cc(OC)ccc2OC)ccc1NC(C)=O,81 to 83 °C
3,COc1ccc(-c2cc(=O)[nH]nc2C)cc1,255 to 256 °C
4,Cc1ccc(OC2CCN(C(=O)C(=O)Nc3ccc4nc(S)[nH]c4c3)CC2)cc1,311 to 314 °C
5,CC(C)(C)OC(=O)Nc1ccc(C#Cc2ccc(Cl)cc2)cc1N,170 to 173 °C
6,COc1ccc(NC(=O)Nc2ccc(Cl)c(Cl)c2)cc1NC(=S)Nc1cccc(C(=O)O)c1,209 to 211 °C
7,CCOC(=O)Cc1ccc(-c2nc(COc3ccc(COc4nn(-c5ccccc5)cc4/C=C/c4nc(CC)sc4C)cc3OC)c(C)o2)cc1,127 to 128 °C
8,CC(C)(C)c1ccnc(C(=O)c2[nH]c3ccc(Cl)cc3c2CC(=O)O)c1,209 to 211 °C
9,O=C(O)c1ccc(NCc2cncc3ccccc23)cc1,237 to 240 °C
10,CC(C)NC(=NC(=Nc1ccccc1)N1CCOCC1)C(C)C,132 to 135 °C
11,CCOC(=O)c1cc2ccc3c(c2cc1OC)OC(n1cccc1)=C(C#N)C3c1cccc([N+](=O)[O-])c1 (stereo not given),190 to 191 °C
12,N#CN=C1NCCN1Cc1cccnc1,126 to 128 °C
13,CCC(=O)N1CCC(NC(=O)NC2CCCCC2)CC1,177 to 179 °C
14,COc1cc(C=CC#N)cc(OC)c1,126 °C
15,Cc1ccccc1SCc1c(C(C)C)nc(C(C)C)c(CO)c1-c1ccc(F)cc1,140 to 141 °C
16,CNC(=O)OCc1c(COC(=O)NC)c(-c2ccc(OC)cc2)n2c1Cc1ccccc1C2,182 to 184 °C
17,CC(C)n1nc(CC(=O)c2cccc(Cl)c2)ccc1=O,85 to 86 °C
18,C[C@@H]1C[C@H](CC2CCCCC2)C(=O)O1 (relative stereo),60 to 62 °C
19,O=C(c1ccc(OCC2CC2)c2oc3ccccc3c12)[NH+]([O-])c1ccncc1 (stereo not given),266 to 268 °C
20,CC(=O)NC(CF)COC1CCN(c2nc3ccc(OCC4CC4)cc3o2)CC1 (stereo not given),120 to 121 °C
21,CCOC(=O)N1CCC(n2c(=O)[nH]c3cc(Cl)ccc32)CC1,160 °C
22,c1ccc(Cc2c[nH]c3ccccc23)cc1,108 to 110 °C
23,CCc1cc(C(F)(C(F)(F)F)C(F)(F)C(F)(F)F)cc(C)c1NC(=O)c1cccc(NC(=O)c2ccc(C#N)cc2C)c1OC (stereo not given),104 to 105 °C
24,N#Cc1cc([N+](=O)[O-])ccc1OCC(F)(F)F,94 °C
25,COC(=O)CC(O)CC(=O)C=Cc1ccc(Cl)cc1Cl (stereo not given),77 to 79 °C

row,SMILES,melting point
1,Nc1c(Cl)ncnc1NCc1ccccn1,140 °C
2,OCc1cc(COc2ccc(Cl)cc2Cl)cc(OCc2ccccc2)c1,85 to 88 °C
3,COC(=O)c1cc(-c2ccccc2)c(=O)n2c1-c1sc(Br)cc1CC2,170 to 171 °C
4,C[C@H]1N(C(=O)OCc2ccccc2)COC1(O)c1ccc(OCc2ccccc2)cc1 (stereo not given in full),82 to 86 °C
5,O=c1[nH]c(N2CCNC(CO)C2)cc2ccccc12 (stereo not given),> 120 °C
6,Cc1ccc(S(=O)(=O)N2[C@@H](Cc3nc(C)no3)CC[C@H]2c2ccc(F)cc2)cc1 (racemic),103 °C
7,CCOC(OCC)c1cccc2c1Sc1c(C=O)cccc1N2C,154 °C
8,CCOC(=O)NC(=S)Nc1ccc(Br)cn1,159 to 161 °C
9,CN1C2CCC1CN(c1ccc(C#Cc3ccc(NC(=O)c4ccccc4)cc3)nn1)C2,88 to 96 °C
10,CC(C)OC(=O)c1ncn2c1[C@@H]1CCCN1C(=O)c1ccccc1-2,207 to 208 °C
11,NC1C(=O)N(CC2C3CC4CC(C3)CC2C4)c2ccccc2N(c2ccccc2)C1=O (stereo not given),209 to 210 °C
12,COc1ccc(CCNC(=S)Nc2nc3ccccc3[nH]2)cc1,166 to 172 °C
13,CCCCCCCCCCCCCCc1ccc(OCC2COC(C)(C)O2)cc1 (stereo not given),52 to 53 °C
14,O=c1oc(Nc2ccccc2I)nc2ccccc12,140 to 143 °C
15,O=C(O)C(c1ccc(Cl)cc1)c1c(Cl)cc(-n2ncc(=O)[nH]c2=O)cc1Cl (stereo not given),220 °C
16,COC[C@@H](N)C(=O)N(O)C(=O)OC(C)(C)C,83 to 85 °C
17,COc1cc2c(cc1OC)CC(=S)N(CCCN(C)C1CCc3cc(OC)c(OC)cc3C1)CC2 (stereo not given),70 to 75 °C
18,COc1cc2cc(C(=O)OC(C)(C)C)c(N)cc2cc1O,262 to 263 °C
19,Cc1ccc(S(=O)(=O)N2[C@H](CCCCC#N)CC[C@@H]2c2ccc(F)cc2)cc1 (racemic),79 °C
20,CCCCOC(=O)c1ccc(OC(=O)C(=O)Oc2ccc(C(=O)OCCCC)cc2)cc1,100 to 102 °C
21,Cc1cc(C(=O)NCOCc2cccnc2)ncc1C(c1cc(F)ccc1F)S(=O)(=O)c1ccc(F)cc1 (stereo not given),121 to 123 °C
22,COC(=O)CCC(=O)c1ccc(N2CCOCC2)cc1,120 to 121 °C
23,COc1ccc(COCc2nccn2CCO)cc1,96 to 98 °C
24,O=C(Cn1c(-c2ccc(Cl)cc2)nc2cccnc21)N1CCCCC1,176 to 178 °C
25,CCc1c(OC)nc2nc(C(N)=S)cn2c1C,248 to 259 °C

row,SMILES,melting point
1,O=C(OCCc1ccccc1)c1ccc2cc(O)c(O)cc2c1,175 to 176 °C
2,Cc1c(SCCCSCC2CN(C)C(=O)O2)ccnc1CNc1cnc2ccccc2c1 (stereo not given),98 to 100 °C
3,CCOC(=O)c1cc2ccnc(Cl)c2[nH]1,152 to 157 °C
4,CN[C@H](Cc1ccc2ccccc2c1)C(=O)N1CCN(S(C)(=O)=O)C[C@H]1Cc1ccccc1,165 to 168 °C
5,CNc1c2c(nc3ccccc13)CCCC2=O,116 to 117 °C
6,CCC(O)c1cc([N+](=O)[O-])cc(Br)c1Cl (stereo not given),110 to 113 °C
7,Nc1c(F)c(N2C[C@@H]3CCCN[C@@H]3C2)c(F)c2c1c(=O)c(C(=O)O)cn2[C@@H]1C[C@@H]1F,145 to 149 °C
8,CCSc1ccc(Cl)c(C#N)n1,46 to 48 °C
9,CCCNC(=O)c1ccc(C=O)cc1,71 to 74 °C
10,COc1ccc(C=Cc2ccc([N+](=O)[O-])cc2)cc1C,109 to 111 °C
11,COc1cc(NC(C)=O)c2c(c1)OC(C)C2 (stereo not given),104 °C
12,O=C(c1cccc(F)c1)N1CC2CC2(c2ccccc2)C1 (stereo not given),68 to 69.5 °C
13,COc1cc(C(=O)N2CCC(CCN3CCC(C(=O)c4nc5ccccc5n4Cc4ccc(F)cc4)CC3)(c3ccccc3)C2)cc(OC)c1OC (stereo not given),107 to 109 °C
14,C=C1CN(c2ccccc2)C1=O,57 to 58 °C
15,C(=C(c1ccccc1)c1ccccc1)c1ccc(N(c2ccccc2)c2ccc3c4c(cccc24)CC3)cc1,189 to 190 °C
16,NC(=O)CCC(Nc1ccc2ccccc2n1)C(=O)O (stereo not given),222 to 226 °C
17,CC(C)(C)C(=O)c1c[nH]c2ncc(-c3cccc(NC4=NCCN4)c3)nc12,228 to 230 °C
18,CN(C)C=C(Cc1ccccc1)C(=O)c1cccnc1Cl,115 to 120 °C
19,O=C1NC(=O)C(n2cnc3ccccc32)=C1c1c[nH]c2ccccc12,310 to 320 °C
20,CCOC(=O)C(CC)Oc1ccc2c(-c3ccc(Cl)cc3)noc2c1 (stereo not given),73 °C
21,CC(O)C1COCc2nc3c(N)nc4ccccc4c3n21 (stereo not given),208 to 209 °C
22,FC(F)(F)c1nc(Cl)c(Cl)[nH]1,186 to 188 °C
23,CCCc1ccnc2c(=O)[nH]c(-c3ccccc3OCC)nc12,134 to 137 °C
24,C1=C(c2c[nH]c3ccccc23)CCN(CC2COc3ccc4occc4c3O2)C1 (stereo not given),208 to 209 °C
25,COc1ccc(C2CCN(C(=O)CC(N)=O)CC2)cc1OC1CCCC1,132 to 133 °C
